Reference: PMC8501799, “Constitutive signal bias mediated by the human GHRHR splice variant 1” (Proceedings of the National Academy of Sciences of the …, 2021)

Columns and labels:
[1] = target: T1, GHRHR Δ32 (Homo sapiens, UniProt Q02643); assay: cAMP accumulation; assay type: cell-based; settings: Table S2; operational model; τ corrected by cell surface expression; relative to WT GHRHR; mean ± SEM
T1 construct: expressed in transfected cells; host or cells: HEK293T
Protocol: Concentration-response curves were evaluated with a three-parameter logistic equation.

[2] = tested on: GHRHR ECD mutants (L34, L62, F82, F85 to alanine); assay: β-arrestin 1/2 recruitment (BRET), GHRHR ECD alanine mutants; assay type: cell-based, human; settings: HEK293T
Protocol: HEK293T cells were seeded at a density of 30,000 cells per well into 96-well culture plates pretreated with poly-D-lysine hydrobromide. After incubation for 24 h to reach 70% to 80% confluence, the cells were transiently transfected with HA-Flag-GHRHR-Rluc8 or HA-Flag-SV1-Rluc8 and β-arrestin 1/2-Venus at a 1:9 mass ratio using lipofectamine 3000 reagent (Invitrogen) and cultured for another 24 h. Thereafter, cells were washed once and incubated for 30 min at 37 °C with HBSS buffer (pH 7.4) supplemented with 0.1% BSA and 10 mM HEPES. Five micromolars of coelenterazine h (YEASEN Biotechnology) was then added and incubated for 5 min in the dark. The bioluminescence resonance energy transfer (BRET) signals were detected with an Envision plate reader by calculating the ratio of emission at 535 nm over emission at 470 nm.

[3] = tested on: SV1 H146A; assay: cAMP accumulation; assay type: cell-based, human; settings: Table S4, mean ± SEM
Protocol: (§1) GHRH-stimulated cAMP accumulation was measured by a LANCE Ultra cAMP kit (PerkinElmer). Briefly, HEK293T cells (24 h after transfection with SV1 or GHRHR) or prostate cancer cells were digested by 0.2% (wt/vol) EDTA and washed once with Dulbecco’s phosphate-buffered saline (PBS). Cells were then resuspended with stimulation buffer (Hanks’ balanced salt solution [HBSS] supplemented with 5 mM HEPES, 0.5 mM IBMX, and 0.1% [wt/vol] bovine serum albumin [BSA], pH 7.4) to a density of 0.6 million cells per milliliter and added to 384-well white plates (3,000 cells per well). […] The reaction was stopped by adding 5 μL Eu-cAMP tracer and 5 μL ULight-anti-cAMP. After 1 h RT incubation, TR-FRET signals (excitation: 320 nm, emission: 615 and 665 nm) were measured by an Envision plate reader (PerkinElmer). cAMP concentrations were interpolated by a standard curve.
(§2) All functional study data were analyzed using Prism 7 (GraphPad) and presented as means ± SEM from at least three independent experiments. Concentration-response curves were evaluated with a three-parameter logistic equation. The significance was determined with either two-tailed Student’s t test or one-way ANOVA, and P < 0.05 is considered statistically significant.
(§3) Table S4. Effects of residue mutation in the ligand-binding pocket of SV1 on GHRH-induced cAMP […]
(§4) Mutant pEC50 Emax Cell surface expression ΔLog (τ/KA)
(§5) (% WT GHRHR) (% WT GHRHR) cAMP accumulation data were analyzed using a three-parameter logistic equation to determine pEC50 and Emax values. pEC50 is the negative logarithm of the molar concentration of agonist that induced half the maximal response. Emax for mutants is expressed as a percentage of the WT GHRHR. Data were analyzed by nonlinear regression using the operational model equation to determine t he logR values (logτ/KA, i.e., logarithm of the transduction ratio). τ is the effi cacy value of the agonist and was corrected by cell surface expression of the receptor. KA is dissociation constant. Changes in transduction ratio (ΔlogR) were calculated to determine the relative effectiveness of the mutants. All values are means ± S.E.M. of four independent experiments (n = 4) conducted in quadruplicate. Statistical analysis was carried out by comparing the control responses in the WT-SV1. *, P < 0.05, **, P < 0.01 and ***, P < 0.001, determined by one-way

[4] = tested on: SV1 Y69A; assay: cAMP accumulation; assay type: cell-based, human; settings: Table S4, mean ± SEM
Protocol: as §1, §2, §3, §4, §5

[5] = tested on: SV1 K66A; assay: cAMP accumulation; assay type: cell-based, human; settings: Table S4, mean ± SEM
Protocol: as §1, §2, §3, §4, §5

[6] = tested on: SV1 K118A; assay: cAMP accumulation; assay type: cell-based, human; settings: Table S4, mean ± SEM
Protocol: as §1, §2, §3, §4, §5

[7] = tested on: SV1 I225A; assay: cAMP accumulation; assay type: cell-based, human; settings: Table S4, mean ± SEM
Protocol: as §1, §2, §3, §4, §5

[8] = tested on: SV1 L294A; assay: cAMP accumulation; assay type: cell-based, human; settings: Table S4, mean ± SEM
Protocol: as §1, §2, §3, §4, §5

[9] = tested on: SV1 F62A; assay: cAMP accumulation; assay type: cell-based, human; settings: Table S4, mean ± SEM
Protocol: as §1, §2, §3, §4, §5

[10] = tested on: SV1 S145A; assay: cAMP accumulation; assay type: cell-based, human; settings: Table S4, mean ± SEM
Protocol: as §1, §2, §3, §4, §5

[11] = tested on: SV1 L290A; assay: cAMP accumulation; assay type: cell-based, human; settings: Table S4, mean ± SEM
Protocol: as §1, §2, §3, §4, §5

[12] = tested on: SV1 V65A; assay: cAMP accumulation; assay type: cell-based, human; settings: Table S4, mean ± SEM
Protocol: as §1, §2, §3, §4, §5

[13] = HEK293T, LANCE Ultra cAMP, 30 min RT, 0.5 mM IBMX, n = 4 in quadruplicate
[14] = HEK293T, n = 4 in quadruplicate
[15] = operational model, τ corrected by cell surface expression, n = 4

T1 sequence (Q02643 33-423 limits assumed, stated change not applied): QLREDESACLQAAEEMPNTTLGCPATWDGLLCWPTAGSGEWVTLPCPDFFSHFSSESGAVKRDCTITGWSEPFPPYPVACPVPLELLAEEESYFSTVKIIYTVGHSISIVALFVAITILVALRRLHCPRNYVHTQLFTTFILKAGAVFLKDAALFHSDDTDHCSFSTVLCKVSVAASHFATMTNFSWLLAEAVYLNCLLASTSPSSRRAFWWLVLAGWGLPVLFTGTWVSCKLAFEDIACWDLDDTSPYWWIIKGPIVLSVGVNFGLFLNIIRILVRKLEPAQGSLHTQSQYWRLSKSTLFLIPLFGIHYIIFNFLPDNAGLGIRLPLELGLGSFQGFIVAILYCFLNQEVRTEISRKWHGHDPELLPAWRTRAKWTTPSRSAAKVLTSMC

SMILES: CC[C@H](C)[C@H](NC(=O)[C@H](C)NC(=O)[C@H](CC(=O)O)NC(=O)[C@H](C)NC(=O)[C@@H](N)Cc1ccc(O)cc1)C(=O)N[C@@H](Cc1ccccc1)C(=O)N[C@H](C(=O)N[C@@H](CC(N)=O)C(=O)N[C@@H](CO)C(=O)N[C@@H](Cc1ccc(O)cc1)C(=O)N[C@@H](CCCNC(=N)N)C(=O)N[C@@H](CCCCN)C(=O)N[C@H](C(=O)N[C@@H](CC(C)C)C(=O)NCC(=O)N[C@@H](CCC(N)=O)C(=O)N[C@@H](CC(C)C)C(=O)N[C@@H](CO)C(=O)N[C@@H](C)C(=O)N[C@@H](CCCNC(=N)N)C(=O)N[C@@H](CCCCN)C(=O)N[C@@H](CC(C)C)C(=O)N[C@@H](CC(C)C)C(=O)N[C@@H](CCC(N)=O)C(=O)N[C@@H](CC(=O)O)C(=O)N[C@H](C(=O)N[C@@H](CCSC)C(=O)N[C@@H](CO)C(=O)N[C@@H](CCCNC(=N)N)C(=O)N[C@@H](CCC(N)=O)C(=O)N[C@@H](CCC(N)=O)C(=O)NCC(=O)N[C@@H](CCC(=O)O)C(=O)N[C@@H](CO)C(=O)N[C@@H](CC(N)=O)C(=O)N[C@@H](CCC(N)=O)C(=O)N[C@@H](CCC(=O)O)C(=O)N[C@@H](CCCNC(=N)N)C(=O)NCC(=O)N[C@@H](C)C(=O)N[C@@H](CCCNC(=N)N)C(=O)N[C@@H](C)C(=O)N[C@@H](CCCNC(=N)N)C(=O)N[C@@H](CC(C)C)C(N)=O)[C@@H](C)CC)C(C)C)[C@@H](C)O [GHRH, growth hormone–releasing hormone]
- ΔLog (τ/KA) [1]: -3.23 ± 0.04
- β-arrestin 1/2 recruitments ([2]; F82A and F85A mutants of GHRHR): enhanced β-arrestin 1/2 recruitments
- β-arrestin 1/2 recruitments ([2]; any or all of four ECD residues (L34, L62, F82, F85) to alanine): enhanced β-arrestin 1/2 recruitments
- pEC50 of cAMP accumulation [3, 13]: 5.07 ± 0.08
- Emax of cAMP accumulation [3, 14]: 101.06 ± 4.83 % WT GHRHR
- ΔLog (τ/KA) [3, 15]: -4.64 ± 0.11
- pEC50 of cAMP accumulation [4, 13]: 5.44 ± 0.09
- Emax of cAMP accumulation [4, 14]: 104.75 ± 4.29 % WT GHRHR
- ΔLog (τ/KA) [4, 15]: -3.81 ± 0.10
- pEC50 of cAMP accumulation [5, 13]: 5.60 ± 0.08
- Emax of cAMP accumulation [5, 14]: 106.82 ± 4.09 % WT GHRHR
- ΔLog (τ/KA) [5, 15]: -4.02 ± 0.11
- pEC50 of cAMP accumulation [6, 13]: 4.61 ± 0.12
- Emax of cAMP accumulation [6, 14]: 92.40 ± 7.25 % WT GHRHR
- ΔLog (τ/KA) [6, 15]: -4.51 ± 0.13
- pEC50 of cAMP accumulation [7, 13]: 4.98 ± 0.12
- Emax of cAMP accumulation [7, 14]: 76.03 ± 5.48 % WT GHRHR
- ΔLog (τ/KA) [7, 15]: -3.85 ± 0.13
- pEC50 of cAMP accumulation [8, 13]: 5.32 ± 0.10
- Emax of cAMP accumulation [8, 14]: 106.26 ± 5.25 % WT GHRHR
- ΔLog (τ/KA) [8, 15]: -4.96 ± 0.12
- pEC50 of cAMP accumulation [9, 13]: 5.28 ± 0.08
- Emax of cAMP accumulation [9, 14]: 105.64 ± 4.54 % WT GHRHR
- ΔLog (τ/KA) [9, 15]: -4.41 ± 0.14
- pEC50 of cAMP accumulation [10, 13]: 6.34 ± 0.09
- Emax of cAMP accumulation [10, 14]: 101.87 ± 3.50 % WT GHRHR
- ΔLog (τ/KA) [10, 15]: -4.22 ± 0.14
- pEC50 of cAMP accumulation [11, 13]: 5.58 ± 0.08
- Emax of cAMP accumulation [11, 14]: 109.60 ± 3.90 % WT GHRHR
- ΔLog (τ/KA) [11, 15]: -4.56 ± 0.09
- pEC50 of cAMP accumulation [12, 13]: 5.33 ± 0.09
- Emax of cAMP accumulation [12, 14]: 106.08 ± 4.91 % WT GHRHR
- ΔLog (τ/KA) [12, 15]: -4.08 ± 0.12
